Measured values published in patent publication US4816452A, “Aminothiazole substituted penicillins and antibacterial compositions thereof” (Beecham Group P.L.C., priority 1985, dated 1989).
Values after ≈ are worked out from the molar mass of the structure shown.

Assays:
S. aureus Smith [1] = assay: M.I.C, S. aureus Smith; type: cell-based; settings: Staphylococcus aureus, in vivo
S. aureus MB9 [2] = assay: In vitro MIC, S. aureus MB9; type: cell-based; settings: for MIC: Staphylococcus aureus; for (M.I.C): in vivo
Description: (§1) |In Vitro Biological Data.

S. aureus Oxford = assay: In vitro MIC, S. aureus Oxford; type: cell-based; settings: Staphylococcus aureus
Description: as §1

S. aureus MB9 [3] = assay: In vivo experimental infection in mice, S. aureus MB9; settings: Staphylococcus aureus, sc, subcutaneous, dosed at 1 and 5 hours after infection, 5 mice/group, read-out: Total S.C. CD50
Procedure: (§2) In Vivo Biological Data.
(§3) The compound of example 4 was tested in vivo in mice
(§4) against experimental infections. The results of these
(§5) *dosed at 1 and 5 hours after infection. 5 mice/group.

B. catarrhalis Ravasio = assay: In vitro MIC, B. catarrhalis Ravasio; type: cell-based; settings: Moraxella catarrhalis
Description: as §1

S. aureus Smith [4] = assay: In vivo experimental infection in mice, S. aureus Smith; settings: Staphylococcus aureus, sc, subcutaneous, dosed at 1 and 5 hours after infection, 5 mice/group, read-out: Total S.C. CD50
Procedure: as §2, §3, §4, §5

S. epidermidis PHLN20 = assay: In vitro MIC, S. epidermidis PHLN20; type: cell-based; settings: Staphylococcus epidermidis
Description: as §1

S. aureus V573 = assay: In vitro MIC, S. aureus V573 (methicillin resistant strain); type: cell-based; settings: Staphylococcus aureus
Description: In Vitro Biological Data.
(+ = methicillin resistant strain)

S. pneumoniae 1761 = assay: In vitro MIC, S. pneumoniae 1761; type: cell-based; settings: Streptococcus pneumoniae
Description: as §1

H. influenzae NEMCl = assay: In vitro MIC, H. influenzae NEMCl; type: cell-based; settings: Haemophilus influenzae
Description: as §1

H. influenzae Q1 = assay: In vitro MIC, H. influenzae Q1; type: cell-based; settings: Haemophilus influenzae
Description: as §1

[5] = Blood concentration in mice after subcutaneous administration; type: in vivo; settings: mouse, sc, 50 mg/kg
Procedure: The compound of example 4 was administered to mice (5) by the subcutaneous route at a dosage of 50 mg/kg and the blood concentration determined.

SMILES | MIC (S. aureus Smith [1]) [µg/mL] | MIC (S. aureus MB9 [2]) [µg/mL] | (M.I.C) (S. aureus MB9 [2]) [µg/mL] | MIC (S. aureus Oxford) [µg/mL] | ED50 (S. aureus MB9 [3]) [mg/kg] | MIC (B. catarrhalis Ravasio) [µg/mL] | ED50 (S. aureus Smith [4]) [mg/kg] | MIC (S. epidermidis PHLN20) [µg/mL] | MIC (S. aureus V573) [µg/mL] | MIC (S. pneumoniae 1761) [µg/mL] | MIC (H. influenzae NEMCl) [µg/mL] | MIC (H. influenzae Q1) [µg/mL] | AUC [5] [ng·h/mL] | concentration at 5 min ([5]; 5 mins) [ng/mL] | concentration at 10 min ([5]; 10 mins) [ng/mL] | concentration at 20 min ([5]; 20 mins) [ng/mL] | concentration at 0.5 h ([5]; 30 mins) [ng/mL] | concentration at 1 h ([5]; 60 mins) [ng/mL] | concentration at 2 h ([5]; 120 mins) [ng/mL]
CC1(C)S[C@@H]2[C@H](NC(=O)/C(=N\OC3CCCCC3)c3csc(N)n3)C(=O)N2[C@H]1C(=O)O [Example 4, Sodium 6β-[2-(2-aminothiazol-4-yl)-(Z)-2-cyclohexyloxyiminoacetamido]penicillanate] | 0.12 | 0.5 | 0.5 | 0.12 | 4 | 0.25 | 1.5 | 0.25 | 4 | < 0.03 | 0.5 | 0.12 | 9520 | 31000 | 21800 | 14300 | 7700 | 900 | < 90
Cc1onc(-c2c(F)cccc2Cl)c1C(=O)N[C@@H]1C(=O)N2[C@@H]1SC(C)(C)[C@@H]2C(=O)O [flucloxacillin, reference compound] | 0.25 (≈ 0.551 µM) | 0.5 (≈ 1.1 µM) | 0.5 | 0.25 (≈ 0.551 µM) | 17 | 16 (≈ 35.3 µM) | 6 | 0.25 (≈ 0.551 µM) | 32 (≈ 70.5 µM) | 0.25 (≈ 0.551 µM) | 16 (≈ 35.3 µM) | 4 (≈ 8.81 µM) | – | – | – | – | – | – | –
